Laboratory results: PubChem BioAssay (NCI)
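The compound was tested at five concentrations on cells cultured in 96-well plates, with a 48-hour exposure period. GI50 marks 50% less growth. TGI marks complete inhibition of growth.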

Legend:
Assay in all cases: DTP human tumour cell line panel, 48 h
CCRF-CEM leukemia = test system: CCRF-CEM leukemia
DU-145 prostate = test system: DU-145 prostate
IGROV1 ovarian = test system: IGROV1 ovarian
MCF7 breast = test system: MCF7 breast
MDA-MB-231 breast = test system: MDA-MB-231 breast
OVCAR-3 ovarian = test system: OVCAR-3 ovarian
SF-268 CNS = test system: SF-268 CNS
SF-295 CNS = test system: SF-295 CNS
SK-MEL-2 melanoma = test system: SK-MEL-2 melanoma
SNB-19 CNS = test system: SNB-19 CNS

Row | Compound | TGI (CCRF-CEM leukemia) [µM] | TGI (DU-145 prostate) [µM] | TGI (IGROV1 ovarian) [µM] | TGI (MCF7 breast) [µM] | TGI (MDA-MB-231 breast) [µM] | TGI (OVCAR-3 ovarian) [µM] | TGI (SF-268 CNS) [µM] | TGI (SF-295 CNS) [µM] | TGI (SK-MEL-2 melanoma) [µM] | TGI (SNB-19 CNS) [µM] | GI50 (CCRF-CEM leukemia) [µM] | GI50 (DU-145 prostate) [µM] | GI50 (IGROV1 ovarian) [µM] | GI50 (MCF7 breast) [µM] | GI50 (MDA-MB-231 breast) [µM] | GI50 (OVCAR-3 ovarian) [µM] | GI50 (SF-268 CNS) [µM] | GI50 (SF-295 CNS) [µM] | GI50 (SK-MEL-2 melanoma) [µM] | GI50 (SNB-19 CNS) [µM]
1 | CS(=O)(=O)c1cc(=O)c2ccccc2s1 | 3.93 | 33.3 | 41.2 | 8.18 | 31.4 | 5.27 | 32.1 | 24.8 | 30.4 | 36.5 |  |  |  |  |  |  |  |  |  | 
2 | C=C1CC[C@@H]2[C@](C)(COC(C)=O)[C@H](OC(C)=O)CC[C@@]2(C)[C@@H]1CC(Nc1ccc(S(=O)(=O)Nc2ncccn2)cc1)C1=CCOC1=O (some centres undefined) | 3.41 | 3.07 | 4.41 | 4.54 | 3.93 | 2.54 | 4.16 | 18.7 | 7.2 | 3.76 | 0.738 | 1.62 | 2.04 | 1.07 | 1.95 | 1.21 | 1.93 | 6.07 | 2.36 | 1.63
3 | C/C(=N\Nc1ccc(Cl)cn1)c1ccccn1 | > 100 | > 100 | 38.1 | > 100 | > 100 | 14.9 | > 73.2 | 5.18 | > 100 | > 100 | 0.0273 | 0.161 | 0.0823 | 0.0989 | 0.0652 |  | 0.213 | 0.262 | 0.72 | 0.411
4 | COc1ccc(OC)c(C(=O)c2oc3ccc(Br)cc3c2N)c1 | 24.1 | 17.3 | > 87.4 | > 48.2 | 26.7 | 3.28 | > 59.5 | 2.61 | 4.34 | > 100 | 0.332 | 0.604 | 2.13 | 0.289 | 0.847 | 0.347 | 0.725 | 0.286 | 0.357 | 0.901
5 | Cc1ccc(NC(=O)c2sc3nc(C)c(C(O)c4ccccc4)cc3c2N)cc1 (centres undefined) | > 49.7 | 16.8 | 36.8 | > 57.6 | 21.8 | 11.4 | > 100 | 4.03 | 67.3 | > 100 | 0.375 | 0.391 | 0.634 | 0.368 | 0.777 | 0.351 | 2.47 | 0.339 | 1.32 | 0.542
6 | Cc1ccc2c(c1)CN(C(=O)CCC(=O)OCc1ccccc1)c1ccc(C)cc1CN2C(=O)CCC(=O)OCc1ccccc1 | > 100 | > 100 | > 100 | > 100 | > 100 | > 100 | > 100 | > 100 | > 100 | > 100 |  |  |  |  |  |  |  |  |  | 
7 | Clc1ccc(-c2c(C3=NCCCN3)nnn2-c2ccc(Cl)cc2)cc1 | > 83.3 | > 100 | > 100 | > 55.8 | > 77.7 | > 100 | > 83.2 | > 77.2 | 34.6 | > 85.3 |  |  |  |  |  |  |  |  |  | 
